ChEMBL document CHEMBL4340524, “Design and synthesis of a novel 1H-pyrrolo[3,2-b]pyridine-3-carboxamide derivative as an orally available ACC1 inhibitor” (Bioorg Med Chem, 2019)
Values after ≈ are worked out from the molar mass of the structure shown. Active and inactive are the calls of the source. No cut-off for these calls is given here.

Experiments:
Acetyl-CoA carboxylase 2 [1] = target: T1, Acetyl-CoA carboxylase 2 (Homo sapiens, UniProt O00763); assay: Inhibition of recombinant human ACC2 expressed in Sf9 cells using acetyl Co-A as substrate preincubated for 60 mins followed by substrate addition and measured after 30 mins by RapidFire-Mass spectrometry
Target sequence in this assay (O00763 whole entry): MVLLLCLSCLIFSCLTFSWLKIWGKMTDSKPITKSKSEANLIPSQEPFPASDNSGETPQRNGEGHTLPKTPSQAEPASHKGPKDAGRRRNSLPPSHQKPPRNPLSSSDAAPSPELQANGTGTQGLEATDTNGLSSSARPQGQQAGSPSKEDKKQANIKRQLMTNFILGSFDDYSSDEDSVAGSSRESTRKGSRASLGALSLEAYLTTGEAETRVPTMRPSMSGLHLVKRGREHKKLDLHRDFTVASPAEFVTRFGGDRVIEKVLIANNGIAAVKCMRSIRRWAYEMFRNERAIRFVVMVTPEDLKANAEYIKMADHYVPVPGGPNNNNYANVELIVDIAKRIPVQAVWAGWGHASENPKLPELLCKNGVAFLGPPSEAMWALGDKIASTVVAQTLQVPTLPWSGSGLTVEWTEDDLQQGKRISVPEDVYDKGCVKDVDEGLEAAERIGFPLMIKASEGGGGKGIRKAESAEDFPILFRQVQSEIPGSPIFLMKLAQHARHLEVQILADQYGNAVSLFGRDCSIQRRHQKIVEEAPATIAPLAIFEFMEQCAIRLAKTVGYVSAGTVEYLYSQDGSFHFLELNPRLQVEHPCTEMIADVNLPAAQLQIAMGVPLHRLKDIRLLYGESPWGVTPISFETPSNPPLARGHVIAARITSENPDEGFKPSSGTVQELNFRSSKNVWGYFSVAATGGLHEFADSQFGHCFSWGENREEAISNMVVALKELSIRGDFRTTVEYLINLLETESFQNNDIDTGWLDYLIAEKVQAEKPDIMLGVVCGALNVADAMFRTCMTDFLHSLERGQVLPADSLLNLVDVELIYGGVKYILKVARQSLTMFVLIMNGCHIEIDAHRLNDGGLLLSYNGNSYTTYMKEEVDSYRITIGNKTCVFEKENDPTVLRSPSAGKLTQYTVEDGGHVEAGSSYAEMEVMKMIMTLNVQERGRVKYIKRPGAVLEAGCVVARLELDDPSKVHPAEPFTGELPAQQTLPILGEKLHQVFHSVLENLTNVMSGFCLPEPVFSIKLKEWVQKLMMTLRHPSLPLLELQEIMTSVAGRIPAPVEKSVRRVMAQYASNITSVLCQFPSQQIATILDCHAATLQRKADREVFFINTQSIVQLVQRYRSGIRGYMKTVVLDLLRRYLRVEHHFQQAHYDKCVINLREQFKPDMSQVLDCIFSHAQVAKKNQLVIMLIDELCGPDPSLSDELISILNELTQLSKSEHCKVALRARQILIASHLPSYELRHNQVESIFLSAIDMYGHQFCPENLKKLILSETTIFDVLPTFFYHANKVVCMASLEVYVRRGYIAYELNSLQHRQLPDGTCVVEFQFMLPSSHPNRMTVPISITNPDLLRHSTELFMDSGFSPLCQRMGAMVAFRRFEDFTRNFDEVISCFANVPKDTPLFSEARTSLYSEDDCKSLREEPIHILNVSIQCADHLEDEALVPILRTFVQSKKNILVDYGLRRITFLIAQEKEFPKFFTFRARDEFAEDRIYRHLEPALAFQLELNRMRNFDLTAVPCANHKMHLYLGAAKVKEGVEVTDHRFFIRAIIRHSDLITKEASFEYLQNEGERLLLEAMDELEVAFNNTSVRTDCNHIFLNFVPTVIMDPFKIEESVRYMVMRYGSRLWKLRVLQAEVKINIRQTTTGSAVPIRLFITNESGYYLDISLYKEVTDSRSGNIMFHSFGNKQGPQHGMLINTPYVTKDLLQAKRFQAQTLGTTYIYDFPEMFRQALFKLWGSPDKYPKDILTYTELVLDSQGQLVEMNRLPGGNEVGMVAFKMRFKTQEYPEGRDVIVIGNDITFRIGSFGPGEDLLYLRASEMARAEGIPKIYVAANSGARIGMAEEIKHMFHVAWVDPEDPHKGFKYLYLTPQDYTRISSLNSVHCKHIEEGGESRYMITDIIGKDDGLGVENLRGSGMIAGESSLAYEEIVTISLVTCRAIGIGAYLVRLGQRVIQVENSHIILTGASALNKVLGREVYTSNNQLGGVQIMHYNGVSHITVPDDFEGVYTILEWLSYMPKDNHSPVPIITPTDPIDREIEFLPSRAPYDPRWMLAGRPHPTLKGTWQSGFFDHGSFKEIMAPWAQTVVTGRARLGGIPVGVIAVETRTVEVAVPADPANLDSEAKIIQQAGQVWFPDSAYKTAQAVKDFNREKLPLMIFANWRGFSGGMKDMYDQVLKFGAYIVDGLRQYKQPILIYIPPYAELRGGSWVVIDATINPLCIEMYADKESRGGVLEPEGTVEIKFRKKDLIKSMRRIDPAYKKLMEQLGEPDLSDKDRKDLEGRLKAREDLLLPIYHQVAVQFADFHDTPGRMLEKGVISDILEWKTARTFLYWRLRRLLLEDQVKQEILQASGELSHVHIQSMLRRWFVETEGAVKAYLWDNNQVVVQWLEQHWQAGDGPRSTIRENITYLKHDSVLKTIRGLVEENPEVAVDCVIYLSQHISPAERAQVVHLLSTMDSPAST

Acetyl-CoA carboxylase 1 [2] = target: T2, Acetyl-CoA carboxylase 1 (Homo sapiens, UniProt Q13085); assay: Inhibition of ACC1 in human HCT116 cells assessed as reduction in [14C]acetate uptake preincubated for 60 mins followed by [14C]acetate addition and measured after 2 hrs by top count scintillation counting method; assay type: cell-based
[3] = Oral bioavailability in ICR mouse at 1 mg/kg administered as cassette dose by LC-MS/MS analysis; assay type: ADME, organism-based; details: in vivo
Acetyl-CoA carboxylase 1 [4] = target: T2, Acetyl-CoA carboxylase 1; assay: Inhibition of recombinant human ACC1 expressed in Sf9 cells using acetyl Co-A as substrate preincubated for 60 mins followed by substrate addition and measured after 30 mins by RapidFire-Mass spectrometry
Mus musculus = assay: In vivo inhibition of ACC1 in BALB/cA Jc1-nu/nu mouse xenografted with human HCT116 cells assessed as suppression of malonyl-CoA synthesis at 100 mg/kg, po administered as single dose measured after 16 hrs by RPLC-MS/MS analysis; assay type: functional, organism-based
[5] = AUC (0 to 8 hrs) in ICR mouse at 0.1 mg/kg, iv or 1 mg/kg, po administered as cassette dose by LC-MS/MS analysis; assay type: ADME, organism-based; details: in vivo
Acetyl-CoA carboxylase 1 [6] = target: T2, Acetyl-CoA carboxylase 1; assay: Inhibition of recombinant human ACC1 expressed in Sf9 cells at 10 uM using acetyl Co-A as substrate preincubated for 60 mins followed by substrate addition and measured after 30 mins by RapidFire-Mass spectrometry relative to control
Acetyl-CoA carboxylase 2 [7] = target: T1, Acetyl-CoA carboxylase 2; assay: Inhibition of recombinant human ACC2 expressed in Sf9 cells at 10 uM using acetyl Co-A as substrate preincubated for 60 mins followed by substrate addition and measured after 30 mins by RapidFire-Mass spectrometry relative to control
Target sequence in this assay (O00763 whole entry, looked up): as the sequence (O00763 whole entry) above

Homo sapiens = species: Homo sapiens; assay: Selectivity ratio of IC50 for recombinant human ACC2 expressed in Sf9 cells to IC50 for recombinant human ACC1 expressed in Sf9 cells
[8] = Solubility of the compound in pH 6.8 aqueous buffer by HPLC analysis; assay type: physicochemical

Structure (SMILES): CC(C)n1cc(C(=O)Nc2cc3cn[nH]c3cc2F)c2ncc(-c3ccc(N)cc3)cc21
- IC50 (Acetyl-CoA carboxylase 2 [1]): 2 µM
- IC50 (Acetyl-CoA carboxylase 1 [2]): 0.15 µM
- bioavailability [3]: 63.2%
- IC50 (Acetyl-CoA carboxylase 1 [4]): 0.17 µM
- inhibition (Mus musculus): Active
- AUC(0-t) [5]: 647 ng·h/mL

Structure (SMILES): Cn1cc(C(=O)Nc2ccc3c(cnn3C)c2)c2ncc(-c3ccccc3)cc21
- inhibition (Acetyl-CoA carboxylase 1 [6]): 26%

Structure (SMILES): Cn1cc(C(=O)Nc2ccc3[nH]cnc3c2)c2ncc(-c3ccccc3)cc21
- inhibition (Acetyl-CoA carboxylase 2 [7]): 31%
- inhibition (Acetyl-CoA carboxylase 1 [6]): 51%

Structure (SMILES): CC(C)n1cc(C(=O)Nc2ccc3[nH]ncc3c2)c2ncc(-c3ccc(N)cc3)cc21
- IC50 (Acetyl-CoA carboxylase 2 [1]): 2.2 µM
- IC50 (Acetyl-CoA carboxylase 1 [2]): 0.49 µM
- IC50 (Acetyl-CoA carboxylase 1 [4]): 0.21 µM

Structure (SMILES): O=C(Nc1ccc2[nH]ncc2c1)c1c[nH]c2cc(-c3ccccc3)cnc12
- inhibition (Acetyl-CoA carboxylase 2 [7]): 4%
- inhibition (Acetyl-CoA carboxylase 1 [6]): 45%

Structure (SMILES): Cn1cc(C(=O)Nc2ccc3[nH]ncc3c2)c2ncc(-c3ccccc3)cc21
- IC50 (Acetyl-CoA carboxylase 2 [1]): 4 µM
- Ratio IC50 (Homo sapiens): 5
- inhibition (Acetyl-CoA carboxylase 2 [7]): 83%
- IC50 (Acetyl-CoA carboxylase 1 [2]): 0.43 µM
- bioavailability [3]: 39.3%
- IC50 (Acetyl-CoA carboxylase 1 [4]): 0.82 µM
- solubility [8]: 60 µg/mL (≈ 163 µM)
- inhibition (Acetyl-CoA carboxylase 1 [6]): 99%
- AUC(0-t) [5]: 189 ng·h/mL

Structure (SMILES): CN(C(=O)c1cn(C)c2cc(-c3ccccc3)cnc12)c1ccc2[nH]ncc2c1
- inhibition (Acetyl-CoA carboxylase 2 [7]): 6%
- inhibition (Acetyl-CoA carboxylase 1 [6]): 7%

Structure (SMILES): CC(C)n1cc(C(=O)Nc2ccc3[nH]ncc3c2)c2ncc(-c3ccccc3)cc21
- IC50 (Acetyl-CoA carboxylase 2 [1]): 6.4 µM
- IC50 (Acetyl-CoA carboxylase 1 [2]): > 1 µM
- bioavailability [3]: 59.8%
- IC50 (Acetyl-CoA carboxylase 1 [4]): 1.6 µM
- solubility [8]: 3200 µg/mL (≈ 8090 µM)
- AUC(0-t) [5]: 1700 ng·h/mL

Structure (SMILES): Cn1cc(C(=O)Nc2ccc3[nH]ccc3c2)c2ncc(-c3ccccc3)cc21
- inhibition (Acetyl-CoA carboxylase 1 [6]): 69%

Structure (SMILES): O=C(Nc1ccc2[nH]ncc2c1)c1c[nH]c2cc(-c3ccccc3)ccc12
- inhibition (Acetyl-CoA carboxylase 2 [7]): -8%
- inhibition (Acetyl-CoA carboxylase 1 [6]): -7%

Structure (SMILES): CCn1cc(C(=O)Nc2ccc3[nH]ncc3c2)c2ncc(-c3ccccc3)cc21
- IC50 (Acetyl-CoA carboxylase 2 [1]): 3.7 µM
- IC50 (Acetyl-CoA carboxylase 1 [2]): 0.13 µM
- bioavailability [3]: 57.7%
- IC50 (Acetyl-CoA carboxylase 1 [4]): 1 µM
- solubility [8]: < 60 µg/mL
- AUC(0-t) [5]: 653 ng·h/mL
